ChEMBL document CHEMBL1150008, “Synthesis and -lactamase inhibitory evaluation of novel 6-halo-2-chloromethyl-2-methylpenam-3-carboxylic acids and their sulfones and 6-halo-2-mercaptobenzothiazolylmethyl-2-methylpenam-3-carboxylic acids” (Bioorg Med Chem Lett, 1995)
pIC50: −log10 of the molar value.

Columns and labels:
Beta-lactamase 1 [1] = target: T1, Beta-lactamase 1 (Bacillus cereus, UniProt P00809); test: Tested for the ability to inhibit Beta-lactamase of Bacillus cereus (class A enzyme) with 10 minutes pre-incubation
T1 sequence (P00809 whole entry): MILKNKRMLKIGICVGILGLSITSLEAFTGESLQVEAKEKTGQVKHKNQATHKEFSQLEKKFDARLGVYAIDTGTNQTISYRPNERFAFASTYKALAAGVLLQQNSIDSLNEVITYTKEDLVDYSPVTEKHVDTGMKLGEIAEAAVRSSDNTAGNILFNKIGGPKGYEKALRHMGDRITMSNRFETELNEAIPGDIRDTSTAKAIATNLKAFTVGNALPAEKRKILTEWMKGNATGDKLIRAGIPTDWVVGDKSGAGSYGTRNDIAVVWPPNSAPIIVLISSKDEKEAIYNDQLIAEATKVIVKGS

Beta-lactamase 1 [2] = target: T1, Beta-lactamase 1; test: Inhibition of Beta-lactamase of Bacillus cereus (class A enzyme) without pre-incubation

| SMILES | pIC50 (Beta-lactamase 1 [1]) | pIC50 (Beta-lactamase 1 [2]) |
| --- | --- | --- |
| C[C@@]1(CSc2nc3ccccc3s2)S[C@@H]2[C@@H](Br)C(=O)N2[C@H]1C(=O)O | < 2.30 | < 2.30 |
| CC1(C)[C@H](C(=O)O)N2C(=O)[C@H](Cl)[C@H]2S1(=O)=O | 3.70 | 2.82 |
| C[C@]1(CCl)[C@H](C(=O)O)N2C(=O)[C@H](Br)[C@H]2S1(=O)=O | 3.00 | 2.52 |
| C[C@@]1(CSc2nc3ccccc3s2)S[C@@H]2[C@@H](F)C(=O)N2[C@H]1C(=O)O | < 2.30 | < 2.30 |
| C[C@]1(CCl)[C@H](C(=O)O)N2C(=O)[C@H](Cl)[C@H]2S1(=O)=O | 4.15 | 3.35 |
| C[C@]1(CCl)[C@H](C(=O)O)N2C(=O)[C@H](F)[C@H]2S1(=O)=O | < 2.52 | < 2.52 |
| C[C@@]1(CSc2nc3ccccc3s2)S[C@@H]2[C@@H](Cl)C(=O)N2[C@H]1C(=O)O | < 2.30 | < 2.30 |
| C[C@]1(CCl)[C@H](C(=O)O)N2C(=O)C[C@H]2S1(=O)=O | 3.52 | 3.60 |
| CC1(C)[C@H](C(=O)O)N2C(=O)C[C@H]2S1(=O)=O [SULBACTAM] | 4.60 | 4.60 |
